Results reported in patent publication US8058264B2, “Pharmaceutical compositions comprising CB1 cannabinoid receptor antagonists and potassium channel openers for the treatment of obesity and related conditions” (Abbott Products GmbH, priority 2004, dated 2011).

Tests used:
[1] = test system: rat perifused pancreatic islets; test: Insulin secretion in rat perifused pancreatic islets, in depth investigation (Phase 1 and Phase 2); format: cell-based
Method: (§1) Animals: Male Wistar rats in the weight range 175-200 g were group housed in standard animal cages at a temperature of 21±2° C. and humidity of 55±10%. Animals were maintained on a 12 h light-dark cycle (lights on 06.00-18.00 h) with free access to standard rodent diet (B&K Universal Ltd standard rat and mouse diet (BK 001 P), Beekay Feeds, B&K Universal Ltd, Hull, East Riding of Yorkshire) and tap water. The rats were accustomed to these conditions for at least one week before experimentation.
(§2) Experimental procedures: Three rats (sufficient for the isolation of enough islets to allow for 2 perifusion experiments per day) were sacrificed, the branch of the bile duct leading to the liver and the duodenal end of the duct in the pancreas were clamped and the pancreas distended by injection of ice-cold 0.9 mg/ml collagenase solution into the bile duct. The pancreas were then removed and incubated statically for 10-12 min at 37° C. Following the incubation, 10 ml of cold buffer was added and the suspension shaken vigorously by hand for 1 min. The islets were allowed to settle for 5 min on ice and washed three times using ice-cold buffer. Well formed and good sized islets from 3 rats were hand-picked (under a low power microscope) and pooled and a final selection of islet transferred to the perifusion apparatus. Oxygenated (95% O2/5% CO2) Gey & Gey buffer containing 1 mg/ml bovine serum albumin and 4 mM glucose were used throughout the experiment unless otherwise stated (see Dickinson et al. Eur J Pharmacol 1997;339:69-76 for further details).
On each day, two experiments were performed in parallel in 2 identical, independent sets of perifusion apparatus each consisting of sufficient number of chambers. Each chamber was loaded with 20 hand-picked islets. Islets were perifused for an initial 30 min period in media containing 4 mM glucose. Perifusate was collected at 2 min intervals for the remainder of the experiment. After the first 10 min of the experiment (to collect baseline insulin values), the media in each chamber were switched to one containing the relevant drug concentration/vehicle/glucose concentration and perifusate collected for a further 62 min to produce a total of 36 fractions for each chamber.
Experiments were organised to evaluate firstly (Phase I) the effect of Compounds at a single concentration on glucose-stimulated insulin secretion (two independent sets of experiments) and secondly (Phase II), determination of the dose-dependent effect of these compounds to inhibit insulin secretion at 11 mM glucose (three independent sets of experiments).
Perifusate fractions were stored at −75° C. until required for insulin assay. Insulin content of fractions were assayed using a 96-well ELISA assay (Mercodia). Initial insulin assays were performed on only every third fraction (72 assays per experiment).

hamster SUR1 = target: T1, hamster SUR1 (Cricetus cricetus, UniProt Q09427); test: Competitive binding to sulfonylurea and KCO sites of SUR1 ([3H]glibenclamide displacement, COS-cell membranes); settings: SUR1 versus SUR2 selectivity, in words
T1 construct: expressed in transfected cells; host or cells: COS-1 cells, transient transfection (pcDNA vector), membrane preparation
Method: Competitive binding experiments were performed to characterize the affinity of the test compounds for the binding sites for sulfonylureas and KATP channel openers (=KCOs) on hamster SUR1. To assess the affinity for the sulfonylurea site membranes from COS-cells transiently expressing hamster SUR1 were incubated in the presence of [^3H]glibenclamide with increasing concentrations of test compounds. […] Per curve 9-15 distinct concentrations were tested covering the relevant range. All measurements were repeated at least 5 times in independent experiments.
[^3H]glibenclamide (specific activity 51 Ci mmol^−1) was obtained from NEN (Dreieich, Germany). If suitable, stock solutions were prepared in dimethylsulfoxide with a final solvent concentration in the media below 1%.
SUR- or Kir6.x isoforms were used either subcloned in the pcDNA (hamster SUR1, mouse Kir6.2) or pCMV vector (rat SUR2A, SUR2B).
For transfection the cells were incubated 4 hours in a Tris-buffered salt solution containing DNA (5-10 μg/ml) plus DEAE-dextran (1 mg/ml), 2 min in HEPES-buffered salt solution plus dimethylsulfoxide (10%) and 4 hours in DMEM-HG plus chloroquine (100 μM). Cells were then returned to DMEM-HG plus 10% FCS. […] For binding experiments resuspended membranes (final protein concentration 5-50 μg/ml) were incubated in “Tris-buffer” (50 mM, pH 7.4) containing either [^3H]glibenclamide (final concentration 0.3 nM or 3 nM and nonspecific binding defined by 100 nM or 1 μM glibenclamide for SUR1 or SUR2Y1205S-isoforms, respectively) or [^3H]P1075 (final concentration 3 nM, nonspecific binding defined by 100 μM pinacidil) and increasing concentrations of the test compounds. […] Incubations were carried out for 1 h at room temperature and were terminated by rapid filtration through Whatman GF/B filters.
The inhibition constant (Ki value) of the test substances was calculated from the respective IC50 value, and was stated as the negative logarithmised value thereof (pKi).

[2] = test system: rat perifused pancreatic islets; test: Insulin secretion in rat perifused pancreatic islets, simple screen at 11 mM glucose; format: cell-based; settings: for effect on insulin secretion: 0-30 and 30-60 min
Method: as §1, with “001P),” for “001 P),”
as §2, with “After the” for “Three”, “rats” for “rats (sufficient for the isolation of enough islets to allow for 2 perifusion experiments per day)”
On each day, two experiments were performed in parallel in 2 identical, independent sets of perifusion apparatus each consisting of sufficient number of chambers. Each chamber was loaded with 20 hand-picked islets. Islets were perifused for an initial 30 min period in media containing 4 mM glucose. Perifusate was then collected at 2 min intervals for the remainder of the experiment.
Perifusate samples were then pooled to create 3 samples per chamber as follows: Baseline (4 mM): Samples 1-5 (first 10 minutes); 0-30 minutes (11 mM glucose): Samples 6-21; 30-60 minutes (11 mM glucose): Samples 22-36.
Perifusate fractions were stored at −75° C. until required for insulin assay. Insulin content of fractions were assayed using a 96-well ELISA assay (Mercodia). Initial insulin assays were performed in triplicate on three pooled fractions from each chamber (18 samples per experiment, 108 samples in total for 6 experiments).

[3] = test system: glucose-stimulated insulin release; test: Inhibition of glucose-stimulated insulin release (NN-414 versus diazoxide); format: cell-based
[4] = test system: male sugar rats [Ico: ZUCKER-fa/fa (fatty)]; test: 2 week chronic administration: body weight gain in male sugar rats (ZUCKER-fa/fa); format: in vivo, rat; settings: for decrease of body weight in comparison to vehicle-treated rats: day 14
Method: Studies were performed in male sugar rats [[Ico: ZUCKER-fa/fa (fatty) (Orl] (Charles River France) weighing initially 400 to 490 g. Animals were housed two or three in a plastic cage in a temperature (20-24° C.), relative humidity (45-65%) and 12-h light/dark cycle (light 7:00 a.m. to 7:00 p.m.)—controlled room for 6 days before being used. All animals had free access to filtered tap water and standard pelleted laboratory chow (U.A.R., Villemois-son-sur-Orge, France). Animals were individually identified on the tail.
At the end of the acclimatization period, animals were individually housed in wire-topped plastic cages. A pre-weighed quantity of food and water were placed on the roof grids. Each rat was acclimated to the handling and dosing procedure the 3 days preceding the start of treatment. Water and food intake was measured during the 24 h that followed dosing procedure to establish baseline food and water intake for each animal. Thereafter, the rats were randomly assigned to either vehicle or drug treatment groups.
Between 9:00-10:00 a.m. on the day of study, the animals were injected p.o. with either vehicle or differing doses of test compounds in a volume of 2 ml/kg each day for 14 consecutive days. During the 5-day post-treatment period, vehicle was given to all groups.
Daily food and water intake was determined per cage throughout the 14-day treatment period and the 5-day post-treatment period. Individual body weights were checked daily for the subsequent treatment and post-treatment periods. Data were collected before each dosing procedure.

T1 sequence (Q09427 whole entry): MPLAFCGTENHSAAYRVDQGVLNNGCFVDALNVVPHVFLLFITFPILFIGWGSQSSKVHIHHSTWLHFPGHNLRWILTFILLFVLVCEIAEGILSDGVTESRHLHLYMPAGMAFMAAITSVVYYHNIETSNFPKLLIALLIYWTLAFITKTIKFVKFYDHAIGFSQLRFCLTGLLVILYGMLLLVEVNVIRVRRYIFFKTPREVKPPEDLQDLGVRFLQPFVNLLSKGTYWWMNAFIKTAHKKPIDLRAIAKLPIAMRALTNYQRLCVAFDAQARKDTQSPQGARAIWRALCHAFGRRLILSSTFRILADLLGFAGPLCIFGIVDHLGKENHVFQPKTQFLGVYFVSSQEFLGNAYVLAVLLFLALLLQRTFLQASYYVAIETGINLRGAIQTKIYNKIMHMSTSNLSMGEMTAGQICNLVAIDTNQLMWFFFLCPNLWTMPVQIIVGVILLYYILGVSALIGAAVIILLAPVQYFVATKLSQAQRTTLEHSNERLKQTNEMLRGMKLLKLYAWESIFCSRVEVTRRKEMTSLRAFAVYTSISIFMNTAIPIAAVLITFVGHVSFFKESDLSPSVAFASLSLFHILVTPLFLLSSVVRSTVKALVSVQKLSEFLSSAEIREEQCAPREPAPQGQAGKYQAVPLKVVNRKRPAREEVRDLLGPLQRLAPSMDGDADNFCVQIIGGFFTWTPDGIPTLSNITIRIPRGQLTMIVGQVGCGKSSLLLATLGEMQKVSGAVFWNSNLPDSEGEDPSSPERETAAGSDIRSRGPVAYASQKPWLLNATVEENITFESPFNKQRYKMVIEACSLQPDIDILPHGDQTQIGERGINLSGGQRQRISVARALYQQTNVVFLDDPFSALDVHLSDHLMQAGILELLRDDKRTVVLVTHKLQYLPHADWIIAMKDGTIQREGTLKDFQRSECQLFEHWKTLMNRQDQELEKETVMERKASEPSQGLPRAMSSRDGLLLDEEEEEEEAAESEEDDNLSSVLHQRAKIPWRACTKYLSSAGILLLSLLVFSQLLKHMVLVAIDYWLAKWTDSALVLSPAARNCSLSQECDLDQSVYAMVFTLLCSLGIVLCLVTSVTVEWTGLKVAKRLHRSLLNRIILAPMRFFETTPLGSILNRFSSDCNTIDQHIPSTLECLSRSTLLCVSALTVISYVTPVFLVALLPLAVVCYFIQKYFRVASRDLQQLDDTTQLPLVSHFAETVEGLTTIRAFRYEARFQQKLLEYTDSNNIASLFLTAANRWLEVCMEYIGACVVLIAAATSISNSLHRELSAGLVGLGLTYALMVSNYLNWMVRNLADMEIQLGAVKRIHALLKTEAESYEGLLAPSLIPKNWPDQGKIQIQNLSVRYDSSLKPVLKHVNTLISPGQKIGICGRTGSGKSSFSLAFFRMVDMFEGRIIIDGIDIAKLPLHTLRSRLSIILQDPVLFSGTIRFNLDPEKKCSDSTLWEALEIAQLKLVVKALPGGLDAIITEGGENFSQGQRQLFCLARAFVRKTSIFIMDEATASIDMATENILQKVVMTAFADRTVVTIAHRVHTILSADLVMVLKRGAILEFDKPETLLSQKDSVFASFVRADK

SMILES: CC1=NS(=O)(=O)c2cc(Cl)ccc2N1 [Diazoxide, diazoxide, reference compound]
- effect on time-dependent insulin secretion ([1]; Phase 2, 11 mM glucose, 10 μM): only a partial inhibition
- reduction of mean insulin secretion ([1]; Phase 2, 11 mM glucose, 10 μM): 50%
- effect on time-dependent insulin secretion ([1]; Phase 2, 11 mM glucose, 100 μM): almost completely blocked the stimulatory effect of 11 mM glucose
- reduction of mean insulin secretion ([1]; Phase 2, 11 mM glucose, 100 μM): 94%

SMILES: CN[C@@H](Cc1c[nH]c2ccccc12)C(=O)N1CC(c2ccccc2)C(c2ccc(Cl)cc2)=N1 (stereo partly drawn) [Compound 1, (2S)-1-[3-(4-chlorophenyl)-4-phenyl-4,5-dihydro-1H-pyrazol-1-yl]-3-(1H-indol-3-yl)-N-methyl-1-oxopropan-2-amine]
- pki (SUR1) compared with pki (SUR2) (hamster SUR1): pki (SUR1) larger than pki (SUR2)
- effect on insulin secretion [2]: significantly inhibited insulin secretion

SMILES: CN(C)CCNC(=NS(=O)(=O)N1CCCCC1)N1CC(c2ccccc2)C(c2ccc(Cl)cc2)=N1 (stereo not drawn) [Compound 2, 3-(4-chlorophenyl)-N-[2-(dimethylamino)ethyl]-4-phenyl-N′-(piperidin-1-ylsulfonyl)-4,5-dihydro-1H-pyrazole-1-carboximidamide]
- effect on insulin secretion [2]: significantly inhibited insulin secretion (only at 0-30 min for compound 2)

SMILES: CC1(NC2=Nc3cc(Cl)sc3S(=O)(=O)N2)CC1 [NN-414]
- potency to inhibit glucose-stimulated insulin release relative to diazoxide [3]: 100 times

SMILES: CNC(=NS(=O)(=O)c1ccc(C(F)(F)F)cc1)N1CC(c2cccnc2)C(c2ccc(Cl)cc2)=N1 (stereo not drawn) [Compound 4, 3-(4-chlorophenyl)-N-methyl-4-pyridin-3-yl-N′-{[4-(trifluoromethyl)phenyl]sulfonyl}-4,5-dihydro-1H-pyrazole-1-carboximidamide]
- pki (SUR1) compared with pki (SUR2) (hamster SUR1): pki (SUR1) larger than pki (SUR2)
- amount of inhibition of insulin secretion compared with diazoxide [2]: notably greater than diazoxide at 30-60 min
- effect on insulin secretion [2]: significantly inhibited insulin secretion at both 0-30 and 30-60 min

SMILES: CNC(=NS(=O)(=O)N1CCCCC1)N1C[C@H](c2ccccc2)C(c2ccc(Cl)cc2)=N1 [Compound 3, (4S)-3-(4-chlorophenyl)-N-methyl-4-phenyl-N′-(piperidin-1-ylsulfonyl)-4,5-dihydro-1H-pyrazole-1-carboximidamide]
- amount of inhibition of insulin secretion compared with diazoxide [2]: notably greater than diazoxide at 30-60 min
- effect on insulin secretion [2]: significantly inhibited insulin secretion at both 0-30 and 30-60 min

SMILES: CNC(=NS(=O)(=O)c1ccc(Cl)cc1)N1C[C@H](c2ccccc2)C(c2ccc(Cl)cc2)=N1 [Compound A, (4S)-3-(4-chlorophenyl)-N′-[(4-chlorophenyl)sulfonyl]-N-methyl-4-phenyl-4,5-dihydro-1H-pyrazole-1-carboximidamide]
- pki (SUR1) compared with pki (SUR2) (hamster SUR1): pki (SUR1) larger than pki (SUR2)
- decrease of body weight in comparison to vehicle-treated rats ([4]; 3 mg/kg p.o. daily): 5.3%
- decrease of body weight in comparison to vehicle-treated rats ([4]; 10 mg/kg p.o. daily): 6.7%
- decrease of body weight in comparison to vehicle-treated rats ([4]; 30 mg/kg p.o. daily): 5.9%
- effect on body weight during treatment ([4]; 3, 10 and 30 mg/kg p.o., 14 days): sustained non dose-dependent reduction in body weight at all doses administered
- body weight on interruption of drug treatment ([4]; 5-day post-treatment period): progressively returned towards control levels
- effect on insulin secretion at 4 mM glucose ([1]; Phase 1, 10 μM, 4 mM glucose): no effect of compound A on insulin secretion at 4 mM glucose in two experiments and a slight effect to stimulate insulin secretion in one experiment
- effect on insulin secretion at 8 mM glucose ([1]; Phase 1, 10 μM, 8 mM glucose): completely inhibited insulin secretion at 8 mM glucose in two of the experiments and moderately inhibited insulin secretion in the third experiment
- effect on insulin secretion at 16 mM glucose ([1]; Phase 1, 10 μM, 16 mM glucose): moderate effect to inhibit insulin secretion in one experiment but only a slight effect in the other experiment
- dose dependency of effect on mean insulin secretion ([1]; Phase 2, 11 mM glucose): dose-dependent effects to inhibit mean insulin secretion
- doses at which inhibition of mean insulin secretion attained statistical significance ([1]; Phase 2, 11 mM glucose): 3 µM and 10 µM
- effect on time-dependent insulin secretion ([1]; Phase 2, 11 mM glucose, 10 μM): clearly more effective than the comparable (10 μM) dose of diazoxide
- reduction of mean insulin secretion ([1]; Phase 2, 11 mM glucose, 10 μM): 74%
- dose dependency of effect on time-dependent insulin secretion ([1]; Phase 2, 11 mM glucose, four doses): dose-dependent effects to block insulin secretion
